Results reported in PubChem BioAssay AID2060627 (Molecular Pharmacology Branch, DTP, NCI, 2025).
Where “and” joins values, the source holds several entries; their conditions need not be identical. Equal entries are not always repeated.

Test system: 156681-154-R-J1-PDC complex spheroid viability
Experiment: Anticancer human tumor 156681-154-R-J1-PDC patient-derived melanoma cell line growth inhibition [CLK]
Conditions: for viability, T/C: stronger effect = lower value
Text: A high-throughput screen of multi-cell type tumor spheroids was designed to identify active combinations of […] and targeted small molecules. Complex spheroids include a stromal component modeled by human endothelial cells (HUVEC) and fibroblasts modeled by human mesenchymal stem cells (MSCs). The concentration ranges selected for each drug and investigational agent were based upon clinically achievable concentrations if the clinical Cmax of the agent was known.
Compounds. The drugs and investigational agents: cirtuvivint (SM08502; NSC835563), CC-671 (NSC850746), vemurafenib (NSC761431), tapotoclax (NSC804041), sotorasib (NSC818433), adagrasib (NSC831453), MRTX-1133 (NSC836407), BAY2416964 (NSC825713), copanlisib (NSC816437), inavolisib (NSC800729), abemaciclib (NSC768073), osimertinib (NSC779217), entinostat (NSC756642), eltanexor (KPT-8602, NSC794443), venetoclax (NSC766270), ceralasertib (NSC777638), bortezomib (NSC756655), olaparib (NSC753686), talazoparib (NSC767125), alisertib (NSC759677), peposertib (NSC802822), gemcitabine (NSC613327), 5-fluorouracil (NSC19893), SN-38 (NSC673596), oxaliplatin (NSC266046), paclitaxel (NSC125973), and doxorubicin (NSC123127), were obtained from the National Cancer Institute (NCI) Developmental Therapeutics Program Chemical Repository. The FDA-approved anticancer drug set is available from the Developmental Therapeutics Program at https://dtp.cancer.gov/organization/dscb/obtaining/available plates.htm. […] The stock solutions were prepared in dimethyl sulfoxide (DMSO, Sigma-Aldrich, St. Louis, MO, cat. D2650), except for the platinum complexes which were prepared in saline (Quality Biological, Gaithersburg, MD, cat. 114-055-101), at 800-fold the tested concentration and stored at -70 degrees C prior to their use. All drugs and investigational agents were tested over a range starting from a high concentration at or near the clinical Cmax and decreasing in half-log increments. If the clinical Cmax for an agent had not been determined, the highest concentration tested was 10 microM.
Cell Culture. All cells were maintained in an incubator at 37 degrees C and 5% CO2 with 95% humidity. The PDC lines were cultured according to standard operating procedures established by the NCI PDMR. Briefly, all PDCs were thawed and cultured in Matrigel-coated flasks prepared with a working solution of 1X Ham's F-12 nutrient mix, without supplementation (Invitrogen, Waltham, MA, cat. 11765054), 100 U/mL penicillin-streptomycin (Invitrogen, cat. 15140122), and 2.5% Matrigel (Corning Inc., Corning, NY, cat. 354248) for the first three passages. The 947758-054-R-J2-PDC line was cultured in 6B/Colon 1A media, which includes advanced DMEM/F-12 (Thermo Fisher Scientific, cat. 12634028), 10 mM HEPES (Thermo Fisher Scientific, cat. 15630080), 1X GlutaMAX supplement (Thermo Fisher Scientific, cat. 35050061), 0.1 mg/mL primocin (InvivoGen, cat. ant-pm-2), 10% defined fetal bovine serum, heat inactivated (HyClone Laboratories Inc., cat. SH30070.03HI), 1.25 mM N-Acetyl-L-cysteine (Sigma-Aldrich, cat. A9165), 10 mM nicotinamide (Sigma-Aldrich, cat. N0636), 1X B-27 supplement (Thermo Fisher Scientific, cat. 17504044), 1X N-2 supplement (Thermo Fisher Scientific, cat. 17502048), and 10 microM Y-27632 dihydrochloride (Tocris Bioscience, cat. 1254). The 876862-298-R-J1-PDC was cultured in 6E media, which includes all 6B/Colon 1A media components plus 50% L-WRN conditioned media (ATCC, cat. CRL-3276), 50 ng/mL recombinant human EGF recombinant protein (hEGF; Thermo Fisher Scientific, cat. PHG0311), 10 ng/mL recombinant human fibroblast growth factor 10 (hGFG-10; PeproTech, cat. 100-26), 1 ng/mL recombinant human fibroblast growth factor 2 (hFGF-2; PeproTech, cat. 100-18B), and 1 µM prostaglandin E2 (PGE2; Tocris, cat. 2296). The 227483-062-R1-J1-PDC line was cultured in Panc media, containing all 6E components except hFGF-2, with the addition of 500 nM SB-431542 (Selleckchem, cat. S1067) and 10 nM gastrin (Tocris, cat. 3006). […]
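Also: spheroids exposed to the agents for seven days.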
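For viability, T/C in this document: 100% = DMSO vehicle control viability.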

For CC(=O)O[C@H]1C(=O)[C@@]2(C)[C@H]([C@H](OC(=O)c3ccccc3)[C@]3(O)C[C@H](OC(=O)[C@H](O)[C@@H](NC(=O)c4ccccc4)c4ccccc4)C(C)=C1C3(C)C)[C@]1(OC(C)=O)CO[C@@H]1C[C@@H]2O, the viability, T/C (compound 0.0316 µM) was 19.9% and 16%, the viability, T/C (compound 0.1 µM) was 13.5% and 12.5% and the viability, T/C (compound 0.316 µM) was 14.8% and 14.5%. The viability, T/C (compound 1 µM) was 23.2% and 18.2%, the viability, T/C (compound 3.16 µM) was 26.6% and 27.1% and the viability, T/C (compound 10 µM) was 26.6% and 32.9%. For the same compound, the IC50 (curve of compound) was under 31.6 nM.
In the case of COc1ccc([C@@H](O)c2cc(-c3ncnc4cc(N5CCOCC5)ccc34)c(F)cc2Cl)nn1, the viability, T/C (compound 0.0316 µM) is reported as 109% and 79.3%, the viability, T/C (compound 0.1 µM) is reported as 80.7% and 73.7% and the viability, T/C (compound 0.316 µM) is reported as 90.2% and 74.1%. The viability, T/C (compound 1 µM) was 74.8% and 48.6%, the viability, T/C (compound 3.16 µM) was 49.6% and 41.3% and the viability, T/C (compound 10 µM) was 24.8% and 27.6%. The IC50 (curve of compound) was 3380 nM and 1260 nM.
For COc1cccc2c1C(=O)c1c(O)c3c(c(O)c1C2=O)CC(O)(C(=O)CO)CC3OC1CC(N)C(O)C(C)O1 (stereo not drawn), the viability, T/C (compound 0.0316 µM) was 37% and 29.8%, the viability, T/C (compound 0.1 µM) was 25.2% and 19.9% and the viability, T/C (compound 0.316 µM) was 9.16% and 2.97%. For the same compound, the viability, T/C (compound 1 µM) was 0.48% and 0.17%, the viability, T/C (compound 3.16 µM) was 1.37% and 0.12% and the viability, T/C (compound 10 µM) was 2.47% and 0.67%. The IC50 (curve of compound) was under 31.6 nM.
Work on C=CC(=O)N1CCN(c2nc(=O)n(-c3c(C)ccnc3C(C)C)c3nc(-c4c(O)cccc4F)c(F)cc23)C(C)C1 (stereo not drawn) + CN1CCN(c2cc(C(=O)Nc3cc4cc(-c5cnn(C)c5)ccc4cn3)ccn2)CC1 yielded an IC50 (curve of first compound, second compound 0.0316 µM) of over 10000 nM, an IC50 (curve of first compound, second compound 0.1 µM) of over 10000 nM and an IC50 (curve of first compound, second compound 0.316 µM) of under 31.6 nM. The IC50 (curve of first compound, second compound 1 µM) was under 31.6 nM, the IC50 (curve of first compound, second compound 3.16 µM) was under 31.6 nM and the IC50 (curve of first compound, second compound 10 µM) was under 31.6 nM. The viability, T/C (second compound 0.0316 µM, first compound 0.0316 µM) was 97.3%, the viability, T/C (second compound 0.0316 µM, first compound 0.1 µM) was 88% and the viability, T/C (second compound 0.0316 µM, first compound 0.316 µM) was 112%. For the same compound, the viability, T/C (second compound 0.0316 µM, first compound 1 µM) was 129%, the viability, T/C (second compound 0.0316 µM, first compound 3.16 µM) was 118% and the viability, T/C (second compound 0.0316 µM, first compound 10 µM) was 97.9%. It also gave a viability, T/C (second compound 0.1 µM, first compound 0.0316 µM) of 95.6%, a viability, T/C (second compound 0.1 µM, first compound 0.1 µM) of 78.6% and a viability, T/C (second compound 0.1 µM, first compound 0.316 µM) of 101%. It also gave a viability, T/C (second compound 0.1 µM, first compound 1 µM) of 99.9%, a viability, T/C (second compound 0.1 µM, first compound 3.16 µM) of 119% and a viability, T/C (second compound 0.1 µM, first compound 10 µM) of 100%. It also gave a viability, T/C (second compound 0.316 µM, first compound 0.0316 µM) of 28.5%, a viability, T/C (second compound 0.316 µM, first compound 0.1 µM) of 27.9% and a viability, T/C (second compound 0.316 µM, first compound 0.316 µM) of 23.8%. The viability, T/C (second compound 0.316 µM, first compound 1 µM) was 30%, the viability, T/C (second compound 0.316 µM, first compound 3.16 µM) was 29.6% and the viability, T/C (second compound 0.316 µM, first compound 10 µM) was 10.9%. The viability, T/C (second compound 1 µM, first compound 0.0316 µM) was 0.18%, the viability, T/C (second compound 1 µM, first compound 0.1 µM) was 3.34% and the viability, T/C (second compound 1 µM, first compound 0.316 µM) was 0.25%. It also gave a viability, T/C (second compound 1 µM, first compound 1 µM) of 0.17%, a viability, T/C (second compound 1 µM, first compound 3.16 µM) of 2% and a viability, T/C (second compound 1 µM, first compound 10 µM) of 0.82%. For the same compound, the viability, T/C (second compound 3.16 µM, first compound 0.0316 µM) was 0.77%, the viability, T/C (second compound 3.16 µM, first compound 0.1 µM) was 0.21% and the viability, T/C (second compound 3.16 µM, first compound 0.316 µM) was 0.12%. The viability, T/C (second compound 3.16 µM, first compound 1 µM) was 0.11%, the viability, T/C (second compound 3.16 µM, first compound 3.16 µM) was 2.22% and the viability, T/C (second compound 3.16 µM, first compound 10 µM) was 3.15%. It also gave a viability, T/C (second compound 10 µM, first compound 0.0316 µM) of 0.12%, a viability, T/C (second compound 10 µM, first compound 0.1 µM) of 0.14% and a viability, T/C (second compound 10 µM, first compound 0.316 µM) of 0.25%. It also gave a viability, T/C (second compound 10 µM, first compound 1 µM) of 0.17%, a viability, T/C (second compound 10 µM, first compound 3.16 µM) of 1.47% and a viability, T/C (second compound 10 µM, first compound 10 µM) of 0.3%.
